This is an account of results in US9290461B2, “Crystalline modifications of prothioconazole” (ADAMA MAKHTESHIM LTD, priority 2008, dated 2016).

Series [1] can be described thus: Solubility in water, Shake Flask Method (OECD Guideline 105). Format: physicochemical. As to conditions: 20° C., buffered at pH 7, Shake Flask Method (OECD Guideline 105). As for the experimental part: The following solubilities were measured in water, 20° C., buffered at pH 7, using the Shake Flask Method (OECD Guideline 105): […]
The conditions of series [2]: at room temperature; cited from earlier work.

In series [1], `OC(Cc1ccccc1Cl)(Cn1nc[nH]c1=S)C1(Cl)CC1` (racemic) [Form I, 2-[(2RS)-2-(1-chlorocyclopropyl)-3-(2-chlorophenyl)-2-hydroxypropyl]-2H-1,2,4-triazole-3(4H)-thione] showed a solubility in water of 28 ppm. In addition, in series [2], the “thermodynamic stability of the crystalline form” value is “metastable at room temperature”.
For the compound `OC(Cc1ccccc1Cl)(Cn1nc[nH]c1=S)C1(Cl)CC1` (racemic) [Form II, 2-[(2RS)-2-(1-chlorocyclopropyl)-3-(2-chlorophenyl)-2-hydroxypropyl]-2H-1,2,4-triazole-3(4H)-thione], the solubility in water in series [1] came out at 15 ppm. Moreover, the “thermodynamic stability of the crystalline form” value in series [2] is on record as “thermodynamically stable at room temperature”.
Regarding `OC(Cc1ccccc1Cl)(Cn1nc[nH]c1=S)C1(Cl)CC1` (stereo not drawn) [Amorphous, prothioconazole], in series [1], the solubility in water is recorded as 34 ppm.
In the case of `OC(Cc1ccccc1Cl)(Cn1nc[nH]c1=S)C1(Cl)CC1` (stereo not drawn) [DMSO Solvate, prothioconazole], the solubility in water in series [1] was found to be 30 ppm.
